Test results: patent US11279707B2, “NEK inhibitors and methods of use” (DANA-FARBER CANCER INSTITUTE, INC., priority 2017, dated 2022)

Tests used:
Assay type in all cases: biochemical
[1] = target: T1, NEK9 (Homo sapiens, UniProt Q8TD19); assay: kinase inhibition, NEK9
T1 sequence (Q8TD19 1-979): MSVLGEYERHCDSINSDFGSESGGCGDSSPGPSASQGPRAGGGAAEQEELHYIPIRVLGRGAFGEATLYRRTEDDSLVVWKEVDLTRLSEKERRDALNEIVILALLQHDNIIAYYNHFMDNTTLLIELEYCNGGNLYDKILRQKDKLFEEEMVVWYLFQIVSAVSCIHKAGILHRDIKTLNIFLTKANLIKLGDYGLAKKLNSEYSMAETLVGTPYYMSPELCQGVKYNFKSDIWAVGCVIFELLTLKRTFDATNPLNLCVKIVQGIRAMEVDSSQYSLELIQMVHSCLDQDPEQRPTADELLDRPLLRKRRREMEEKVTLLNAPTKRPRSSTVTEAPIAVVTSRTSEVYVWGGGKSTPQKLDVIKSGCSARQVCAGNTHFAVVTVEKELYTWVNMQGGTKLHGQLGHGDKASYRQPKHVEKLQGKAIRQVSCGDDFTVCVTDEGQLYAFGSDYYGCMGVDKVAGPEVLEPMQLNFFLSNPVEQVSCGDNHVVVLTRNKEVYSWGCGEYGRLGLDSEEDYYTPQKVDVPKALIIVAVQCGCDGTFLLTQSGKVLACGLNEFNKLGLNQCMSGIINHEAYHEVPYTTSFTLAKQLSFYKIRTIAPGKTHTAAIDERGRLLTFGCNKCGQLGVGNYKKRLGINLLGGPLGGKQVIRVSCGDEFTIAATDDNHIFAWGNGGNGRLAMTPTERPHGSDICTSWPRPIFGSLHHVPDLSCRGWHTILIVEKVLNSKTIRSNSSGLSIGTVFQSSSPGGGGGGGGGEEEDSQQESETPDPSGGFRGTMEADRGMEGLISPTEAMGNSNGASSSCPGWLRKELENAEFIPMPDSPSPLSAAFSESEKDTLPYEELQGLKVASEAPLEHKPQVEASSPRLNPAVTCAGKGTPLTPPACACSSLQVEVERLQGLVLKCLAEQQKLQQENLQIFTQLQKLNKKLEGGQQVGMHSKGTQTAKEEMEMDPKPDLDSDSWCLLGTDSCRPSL

[2] = target: T2, NEK2 (Homo sapiens, UniProt P51955); assay: kinase inhibition, NEK2
T2 sequence (P51955 1-445): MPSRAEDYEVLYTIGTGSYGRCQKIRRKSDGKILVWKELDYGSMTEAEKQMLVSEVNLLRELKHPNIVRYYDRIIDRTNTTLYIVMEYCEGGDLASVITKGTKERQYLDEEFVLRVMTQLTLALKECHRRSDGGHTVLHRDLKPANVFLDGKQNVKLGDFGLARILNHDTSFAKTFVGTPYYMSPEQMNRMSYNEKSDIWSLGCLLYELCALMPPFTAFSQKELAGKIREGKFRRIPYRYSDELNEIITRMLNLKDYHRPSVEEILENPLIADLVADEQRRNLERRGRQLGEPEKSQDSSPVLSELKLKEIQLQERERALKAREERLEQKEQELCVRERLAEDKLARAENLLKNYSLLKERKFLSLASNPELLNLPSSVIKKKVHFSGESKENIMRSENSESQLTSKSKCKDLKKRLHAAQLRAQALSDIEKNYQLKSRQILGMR

[3] = target: CLK; assay: kinase inhibition, CLK
[4] = target: T3, DMPK (Homo sapiens, UniProt Q09013); assay: kinase inhibition, DMPK
T3 sequence (Q09013 1-629): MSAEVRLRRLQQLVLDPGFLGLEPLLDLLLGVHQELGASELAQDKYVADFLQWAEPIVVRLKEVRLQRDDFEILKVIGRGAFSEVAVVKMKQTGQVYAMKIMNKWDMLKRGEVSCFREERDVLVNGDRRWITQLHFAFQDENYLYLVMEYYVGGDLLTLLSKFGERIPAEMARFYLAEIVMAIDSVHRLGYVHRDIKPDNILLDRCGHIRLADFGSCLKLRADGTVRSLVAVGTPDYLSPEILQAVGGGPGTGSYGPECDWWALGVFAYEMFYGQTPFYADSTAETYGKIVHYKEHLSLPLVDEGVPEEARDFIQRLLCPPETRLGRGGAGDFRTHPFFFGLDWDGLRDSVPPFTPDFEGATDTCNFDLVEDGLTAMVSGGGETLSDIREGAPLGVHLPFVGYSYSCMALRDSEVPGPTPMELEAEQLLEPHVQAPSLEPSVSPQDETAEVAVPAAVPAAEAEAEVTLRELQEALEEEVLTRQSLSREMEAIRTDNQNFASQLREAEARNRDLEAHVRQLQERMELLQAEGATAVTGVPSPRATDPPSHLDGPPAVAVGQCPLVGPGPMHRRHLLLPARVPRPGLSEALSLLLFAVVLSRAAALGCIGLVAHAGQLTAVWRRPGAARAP

[5] = target: NEK6 (Homo sapiens, UniProt Q9HC98); assay: kinase inhibition, NEK6
[6] = target: NEK7 (Homo sapiens, UniProt Q8TDX7); assay: kinase inhibition, NEK7
[7] = target: SLK (Homo sapiens, UniProt Q9H2G2); assay: kinase inhibition, SLK
Sequence of SLK (Q9H2G2 whole entry): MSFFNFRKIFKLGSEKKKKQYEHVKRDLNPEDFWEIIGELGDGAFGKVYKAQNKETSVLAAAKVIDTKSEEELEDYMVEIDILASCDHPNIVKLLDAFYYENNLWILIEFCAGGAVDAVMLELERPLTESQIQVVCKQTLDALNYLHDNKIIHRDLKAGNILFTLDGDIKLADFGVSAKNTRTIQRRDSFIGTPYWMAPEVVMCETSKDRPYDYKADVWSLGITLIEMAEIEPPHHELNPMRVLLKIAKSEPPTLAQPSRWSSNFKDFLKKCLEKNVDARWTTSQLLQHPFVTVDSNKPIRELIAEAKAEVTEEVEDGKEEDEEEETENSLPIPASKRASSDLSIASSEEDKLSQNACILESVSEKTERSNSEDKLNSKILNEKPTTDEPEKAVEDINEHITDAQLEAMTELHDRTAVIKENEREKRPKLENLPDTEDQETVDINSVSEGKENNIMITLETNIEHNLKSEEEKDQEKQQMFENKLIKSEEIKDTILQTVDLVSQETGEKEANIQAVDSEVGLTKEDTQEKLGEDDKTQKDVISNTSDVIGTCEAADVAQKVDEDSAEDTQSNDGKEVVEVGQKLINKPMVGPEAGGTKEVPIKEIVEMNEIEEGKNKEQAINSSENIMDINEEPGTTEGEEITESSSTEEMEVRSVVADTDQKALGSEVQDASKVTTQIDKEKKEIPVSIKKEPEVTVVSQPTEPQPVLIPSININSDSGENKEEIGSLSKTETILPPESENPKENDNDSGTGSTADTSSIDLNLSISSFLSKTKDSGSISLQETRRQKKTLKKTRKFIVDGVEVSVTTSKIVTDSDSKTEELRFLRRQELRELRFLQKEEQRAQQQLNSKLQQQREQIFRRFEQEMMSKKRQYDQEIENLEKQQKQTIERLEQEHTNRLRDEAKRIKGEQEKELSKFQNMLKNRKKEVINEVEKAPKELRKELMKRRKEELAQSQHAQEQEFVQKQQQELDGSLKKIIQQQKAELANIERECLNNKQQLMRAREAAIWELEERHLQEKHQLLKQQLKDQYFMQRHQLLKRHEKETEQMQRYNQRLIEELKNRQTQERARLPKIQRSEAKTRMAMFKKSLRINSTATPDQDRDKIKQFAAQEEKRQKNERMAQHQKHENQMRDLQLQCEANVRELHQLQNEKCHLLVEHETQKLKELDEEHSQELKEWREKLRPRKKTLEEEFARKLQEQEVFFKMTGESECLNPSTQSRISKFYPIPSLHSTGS

Sequence of NEK7 (Q8TDX7 whole entry, species assumed): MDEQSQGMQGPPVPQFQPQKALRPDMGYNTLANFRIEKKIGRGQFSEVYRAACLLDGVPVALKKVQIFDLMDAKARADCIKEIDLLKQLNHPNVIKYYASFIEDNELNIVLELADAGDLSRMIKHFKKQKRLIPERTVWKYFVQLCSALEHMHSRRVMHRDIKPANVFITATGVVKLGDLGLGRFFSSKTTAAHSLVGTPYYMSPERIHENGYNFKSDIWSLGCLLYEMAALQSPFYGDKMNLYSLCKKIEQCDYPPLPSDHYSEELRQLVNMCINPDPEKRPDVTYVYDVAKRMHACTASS
Sequence of NEK6 (Q9HC98 whole entry, species assumed): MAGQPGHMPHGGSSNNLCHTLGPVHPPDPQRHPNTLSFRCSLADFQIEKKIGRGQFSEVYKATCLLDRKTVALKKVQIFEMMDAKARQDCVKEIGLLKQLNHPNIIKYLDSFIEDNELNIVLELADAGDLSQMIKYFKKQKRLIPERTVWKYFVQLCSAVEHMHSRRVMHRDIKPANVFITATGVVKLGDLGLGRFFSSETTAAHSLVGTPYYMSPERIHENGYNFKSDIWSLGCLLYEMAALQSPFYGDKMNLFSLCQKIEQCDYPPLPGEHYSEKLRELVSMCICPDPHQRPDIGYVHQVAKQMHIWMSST

CN1C(=O)C2Cc3ccccc3N2c2nc(Nc3ccc(N4CCC(N5CCOCC5)CC4)cc3)ncc21 (stereo not drawn) [Compound I-29]
IC50 [1]: ≤ 50 nM | IC50 [2]: ≤ 50 nM

Cn1c(=O)c2cc3ccccc3n2c2nc(Nc3cnn(CCN4CCOCC4)c3)ncc21 [Compound I-10]
IC50 [1]: 50 to 250 nM | IC50 [2]: 50 to 250 nM | IC50 [3]: 1000 to 5000 nM | IC50 [4]: 250 to 1000 nM | IC50 [5]: ≥ 5000 nM | IC50 [6]: 1000 to 5000 nM

COc1cc(N2CCC(N3CCN(C)CC3)CC2)ccc1Nc1ncc2c(n1)n1c(cc3ccccc31)c(=O)n2C [Compound I-9]
IC50 [1]: ≤ 50 nM | IC50 [2]: 50 to 250 nM | IC50 [3]: 250 to 1000 nM | IC50 [4]: 1000 to 5000 nM | IC50 [5]: 250 to 1000 nM | IC50 [6]: 250 to 1000 nM

CCN1CCN(c2ccc(Nc3ncc4c(n3)n3c(cc5ccccc53)c(=O)n4C)cc2)CC1 [Compound I-16]
IC50 [1]: ≤ 50 nM | IC50 [2]: ≤ 50 nM | IC50 [3]: 50 to 250 nM | IC50 [4]: 50 to 250 nM | IC50 [5]: 250 to 1000 nM | IC50 [6]: 250 to 1000 nM

COc1cc(N2CCC(C(N)=O)CC2)ccc1Nc1ncc2c(n1)n1c(cc3ccccc31)c(=O)n2C [Compound I-20]
IC50 [1]: 50 to 250 nM | IC50 [2]: 50 to 250 nM | IC50 [3]: 1000 to 5000 nM | IC50 [4]: 1000 to 5000 nM | IC50 [5]: 250 to 1000 nM | IC50 [6]: 50 to 250 nM

COc1cc(C(=O)N2CCN(C)CC2)ccc1Nc1ncc2c(n1)n1c(cc3ccccc31)c(=O)n2C [Compound I-12]
IC50 [1]: 1000 to 5000 nM | IC50 [2]: 50 to 250 nM | IC50 [3]: 250 to 1000 nM | IC50 [4]: 1000 to 5000 nM | IC50 [5]: 1000 to 5000 nM | IC50 [6]: 1000 to 5000 nM

CCn1c(=O)c2cc3ccccc3n2c2nc(Nc3ccc(N4CCN(C)CC4)cc3)ncc21 [Compound I-26]
IC50 [1]: 50 to 250 nM | IC50 [2]: 50 to 250 nM

CN1CCN(C2CCN(c3ccc(Nc4ncc5c(n4)n4c(cc6ccccc64)c(=O)n5C)cn3)CC2)CC1 [Compound I-23]
IC50 [1]: ≤ 50 nM | IC50 [2]: ≤ 50 nM | IC50 [3]: 50 to 250 nM | IC50 [4]: 50 to 250 nM | IC50 [5]: 250 to 1000 nM | IC50 [6]: 250 to 1000 nM

CCN1CCN(c2ccc(Nc3ncc4c(n3)N3c5ccccc5CC3C(=O)N4C)cc2)CC1 (stereo not drawn) [Compound I-28]
IC50 [1]: ≤ 50 nM | IC50 [2]: 50 to 250 nM

CCN1CCN(c2ccc(Nc3ncc4c(n3)n3c(cc5ccccc53)c(=O)n4C)cc2C(F)(F)F)CC1 [Compound I-25]
IC50 [1]: 50 to 250 nM | IC50 [2]: ≤ 50 nM

CCOc1cc(N2CCC(O)CC2)ccc1Nc1ncc2c(n1)n1c(cc3ccccc31)c(=O)n2C [Compound I-18]
IC50 [1]: 250 to 1000 nM | IC50 [2]: 50 to 250 nM | IC50 [3]: ≥ 5000 nM | IC50 [4]: ≥ 5000 nM | IC50 [5]: 250 to 1000 nM | IC50 [6]: 250 to 1000 nM

CN1C(=O)C2Cc3ccccc3N2c2nc(Nc3ccc(N4CCOCC4)cc3)ncc21 (stereo not drawn) [Compound I-32]
IC50 [1]: 50 to 250 nM | IC50 [2]: 50 to 250 nM

Cn1c(=O)c2cc3ccccc3n2c2nc(Nc3ccc(N4CCOCC4)nc3)ncc21 [Compound I-22]
IC50 [1]: 50 to 250 nM | IC50 [2]: 50 to 250 nM | IC50 [3]: 250 to 1000 nM | IC50 [4]: 250 to 1000 nM | IC50 [5]: 1000 to 5000 nM | IC50 [6]: 250 to 1000 nM

CN1C(=O)C2Cc3ccccc3N2c2nc(Nc3cc(N4CCOCC4)cc(N4CCOCC4)c3)ncc21 (stereo not drawn) [Compound I-31]
IC50 [1]: 50 to 250 nM | IC50 [2]: 50 to 250 nM

CN1CCN(c2ccc(Nc3ncc4c(n3)n3c(cc5ccccc53)c(=O)n4C)c(C(F)(F)F)c2)CC1 [Compound I-13]
IC50 [1]: 1000 to 5000 nM | IC50 [2]: 50 to 250 nM | IC50 [3]: ≥ 5000 nM | IC50 [4]: ≥ 5000 nM | IC50 [5]: 1000 to 5000 nM | IC50 [6]: 250 to 1000 nM

COc1cc(C(=O)N2CCOCC2)ccc1Nc1ncc2c(n1)n1c(cc3ccccc31)c(=O)n2C [Compound I-14]
IC50 [1]: ≤ 50 nM | IC50 [2]: 50 to 250 nM | IC50 [3]: ≥ 5000 nM | IC50 [4]: 250 to 1000 nM | IC50 [5]: 1000 to 5000 nM | IC50 [6]: 50 to 250 nM

Cn1c(=O)c2cc3ccccc3n2c2nc(Nc3cnn(CC(F)F)c3)ncc21 [Compound I-11]
IC50 [1]: 50 to 250 nM | IC50 [2]: 250 to 1000 nM | IC50 [3]: ≥ 5000 nM | IC50 [4]: 1000 to 5000 nM | IC50 [5]: ≥ 5000 nM | IC50 [6]: 1000 to 5000 nM

COc1cc(N2CCOCC2)ccc1Nc1ncc2c(n1)N1c3ccccc3CC1C(=O)N2C (stereo not drawn) [Compound I-33]
IC50 [1]: 250 to 1000 nM | IC50 [2]: 1000 to 5000 nM

COc1cc(N2CCN(C)CC2)ccc1Nc1ncc2c(n1)N1c3ccccc3CC1C(=O)N2C (stereo not drawn) [Compound I-30]
IC50 [1]: 50 to 250 nM | IC50 [2]: 250 to 1000 nM

CC(C)Oc1cc(N2CCC(O)CC2)ccc1Nc1ncc2c(n1)n1c(cc3ccccc31)c(=O)n2C [Compound I-19]
IC50 [1]: ≥ 5000 nM | IC50 [2]: ≥ 5000 nM | IC50 [3]: ≥ 5000 nM | IC50 [4]: ≥ 5000 nM | IC50 [5]: 1000 to 5000 nM | IC50 [6]: 250 to 1000 nM

CCN1CCN(c2ccc(Nc3ncc4c(n3)n3c(cc5ccccc53)c(=O)n4C)c(OC)c2)CC1 [Compound I-15]
IC50 [1]: 50 to 250 nM | IC50 [2]: ≤ 50 nM | IC50 [3]: 250 to 1000 nM | IC50 [4]: 250 to 1000 nM | IC50 [5]: 250 to 1000 nM | IC50 [6]: 250 to 1000 nM

CCn1c(=O)c2cc3ccccc3n2c2nc(Nc3ccc(N4CCN(C)CC4)c(C(F)(F)F)c3)ncc21 [Compound I-27]
IC50 [1]: 250 to 1000 nM | IC50 [2]: 250 to 1000 nM

Cn1c(=O)c2cc3ccccc3n2c2nc(Nc3ccc(N4CCC(N5CCOCC5)CC4)cc3)ncc21 [Compound I-17]
IC50 [1]: ≤ 50 nM | IC50 [2]: ≤ 50 nM | IC50 [7]: 50 to 250 nM | IC50 [3]: 50 to 250 nM | IC50 [4]: 50 to 250 nM | IC50 [5]: 250 to 1000 nM

Cn1c(=O)c2cc3ccccc3n2c2nc(Nc3cc(N4CCOCC4)cc(N4CCOCC4)c3)ncc21 [Compound I-21]
IC50 [1]: 50 to 250 nM | IC50 [2]: ≤ 50 nM | IC50 [3]: 250 to 1000 nM | IC50 [4]: 250 to 1000 nM | IC50 [5]: 250 to 1000 nM | IC50 [6]: 250 to 1000 nM
